In one assay the target is ATM (Homo sapiens (Human), UniProt Q13315). As to the kind of experiment: ATM biochemical potency assay. Here is the method:
The plate was incubated at room temperature for 10 minutes. […] Data was collected by Caliper.

The target in another assay is ATR (Homo sapiens (Human), UniProt Q13535). The assay is described as follows: ATR biochemical potency assay. Here is the method: ATR enzyme was made by ChemPartner (batch: CP-ATR-20161102-M2). 2× enzyme solutions were prepared in 1× kinase base buffer. 10 μl of 2× enzyme solution (final concentration: 2.5 nM) was added to each well of the 384-well assay plate containing 60 nl compound in each well. The plate was incubated at room temperature for 10 minutes. 2× peptide solutions were prepared with FAM-labeled peptide and ATP in the 1× kinase base buffer. 10 μl of 2× peptide solution was added to each well of the 384-well assay plate, which was incubated at 28° C. for 240 min. 40 μl of stop buffer was added to stop reaction. Data were collected by Caliper.

A further assay concerns the target PIK3Cβ (p110β) (Homo sapiens (Human), UniProt P42338). The assay is described as follows: PI3K biochemical potency assay (PI3Kβ). Here is the method: (§1) PI3Kα (p110α/p85a), PIK3C δ, PIK3Cβ (p110β), PIK3Cγ (pp110γ) kinase reaction solutions of PI3Kα (Invitrogen, Cat. No. PV4788), PIK3Cδ (Invitrogen, Cat. No. PV6452), PIK3Cβ (Millipore, Cat. No. 14-603-K), PIK3Cγ (Invitrogen, Cat. No. PR8641C) enzymes were prepared in 1× kinase buffer at 4-fold of the final concentration (final concentration: PI3Kα 0.7 nM, PIK3Cδ 3 nM, PIK3Cβ 4.8 nM, PIK3Cγ 11 nM) of each reagent in the assay. 2.5 μl of kinase solution was added to each well of the 384-well assay plate, which contains 2.5 μl of compounds with serially diluted concentration. 2× substrate solution was prepared with PIP2 substrate and ATP in 1× kinase reaction buffer at 2-fold of the final concentration of each reagent in the assay. 5 μl of substrate solution was added to each well of the assay plate to start reaction. The assay plate was incubated at room temperature for 1 hour. 5 μl reaction mix was transferred to a new 384 well plate. 5 μl of ADP-Glo reagent (Promega, Cat. No. v9102/3, Lot. No. 0000176563) was added to each well of the new assay plate to stop the reaction. The plate was shaken slowly and equilibrated for 40 minutes. 10 μl kinase detection reagents was added to each well, which was equilibrated for 60 minutes before read on a plate reader (Envision) for luminescence.

The target in a further assay is PIK3Cγ (pp110γ) (Homo sapiens (Human), UniProt P48736). The assay is described as follows: PI3K biochemical potency assay (PI3Kγ). The protocol: as §1
Assay [1] concerns the target ATM in SN38 treated HT-29 cells (Homo sapiens (Human), UniProt Q13315). The assay is described as follows: ATM SN-38 HT-29 cellular potency assay.
Method: Inhibition of ATM was evaluated in SN38 treated HT-29 cells (ATCC, Cat #HTB-38) by high-Content Imaging System
HT-29 cells were trypsinized and approximately 10,000 cells were seeded per well to 96-well microplates which were incubated overnight at 37° C. and 5% CO2. Test compounds were added to the 96-well plates which were incubated at 37° C. and 5% CO2 for 1 hour. […] After the plates were rinsed 3 times with PBSA, 50 μl permeabilization buffer (0.1% Triton-X 100 in PBSA) was added and the plates were incubated for 20 minutes at room temperature. After the plates were rinsed once with PBSA, 50 μl primary antibody solution was added and the plates were incubated in at 4° C. overnight. […] The plates were rinsed with PBST 3 times and then 100 μl PBSA were added per well. The plates were sealed with black plate seals.
The target of the next assay is PIK3Cδ (Homo sapiens (Human), UniProt O00329). The assay is described as follows: PI3K biochemical potency assay (PI3Kδ). Here is the method: as §1
Sequence of PIK3Cδ (O00329 whole entry, looked up): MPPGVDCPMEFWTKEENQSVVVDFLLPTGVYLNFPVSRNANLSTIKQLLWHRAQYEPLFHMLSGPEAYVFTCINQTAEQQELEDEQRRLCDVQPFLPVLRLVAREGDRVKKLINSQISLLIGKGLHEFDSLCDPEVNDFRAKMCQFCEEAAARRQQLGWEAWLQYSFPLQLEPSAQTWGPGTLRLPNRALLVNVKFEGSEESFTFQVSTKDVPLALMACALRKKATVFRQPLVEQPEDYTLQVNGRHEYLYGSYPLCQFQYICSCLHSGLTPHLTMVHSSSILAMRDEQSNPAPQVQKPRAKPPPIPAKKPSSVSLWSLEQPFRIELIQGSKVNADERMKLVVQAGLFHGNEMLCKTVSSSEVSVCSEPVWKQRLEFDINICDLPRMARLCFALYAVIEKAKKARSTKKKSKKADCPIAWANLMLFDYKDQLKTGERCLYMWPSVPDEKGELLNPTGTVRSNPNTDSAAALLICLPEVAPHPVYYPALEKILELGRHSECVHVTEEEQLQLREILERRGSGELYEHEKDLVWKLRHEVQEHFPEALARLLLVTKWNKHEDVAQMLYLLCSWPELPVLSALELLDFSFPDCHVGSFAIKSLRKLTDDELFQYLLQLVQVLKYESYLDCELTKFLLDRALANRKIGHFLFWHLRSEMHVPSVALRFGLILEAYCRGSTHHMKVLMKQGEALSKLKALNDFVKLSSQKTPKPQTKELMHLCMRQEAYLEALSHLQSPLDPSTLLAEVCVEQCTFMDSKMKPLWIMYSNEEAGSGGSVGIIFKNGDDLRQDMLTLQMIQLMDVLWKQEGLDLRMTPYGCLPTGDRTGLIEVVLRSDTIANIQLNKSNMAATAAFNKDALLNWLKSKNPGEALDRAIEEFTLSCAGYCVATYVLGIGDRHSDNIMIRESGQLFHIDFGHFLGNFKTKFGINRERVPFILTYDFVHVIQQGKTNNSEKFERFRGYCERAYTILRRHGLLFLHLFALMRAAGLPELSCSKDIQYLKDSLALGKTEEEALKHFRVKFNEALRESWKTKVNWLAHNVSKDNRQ
Sequence of PIK3Cδ (P27986 whole entry partner, looked up): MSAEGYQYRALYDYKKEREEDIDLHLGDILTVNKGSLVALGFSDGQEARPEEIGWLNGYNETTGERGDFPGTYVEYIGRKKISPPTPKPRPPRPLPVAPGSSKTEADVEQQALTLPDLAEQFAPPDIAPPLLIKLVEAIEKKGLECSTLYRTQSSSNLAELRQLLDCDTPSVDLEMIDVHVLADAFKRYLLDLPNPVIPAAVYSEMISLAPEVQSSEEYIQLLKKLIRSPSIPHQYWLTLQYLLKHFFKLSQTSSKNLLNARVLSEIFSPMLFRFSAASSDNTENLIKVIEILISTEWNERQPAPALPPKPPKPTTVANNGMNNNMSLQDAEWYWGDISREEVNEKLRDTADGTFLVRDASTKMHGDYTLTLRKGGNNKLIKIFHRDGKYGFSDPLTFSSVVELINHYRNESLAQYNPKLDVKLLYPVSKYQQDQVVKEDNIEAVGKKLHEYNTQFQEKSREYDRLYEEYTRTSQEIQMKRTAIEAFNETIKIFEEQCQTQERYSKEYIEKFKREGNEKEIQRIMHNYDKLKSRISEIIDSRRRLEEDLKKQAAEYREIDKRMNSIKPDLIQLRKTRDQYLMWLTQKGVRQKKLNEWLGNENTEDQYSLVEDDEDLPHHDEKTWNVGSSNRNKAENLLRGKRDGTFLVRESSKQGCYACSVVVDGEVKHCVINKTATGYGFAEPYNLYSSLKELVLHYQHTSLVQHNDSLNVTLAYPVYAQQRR
The target in another assay is mTOR (Homo sapiens (Human), UniProt P42345). As to the kind of experiment: mTOR biochemical potency assay. The protocol:
Solution of mTOR enzymes (Millipore, Cat. No. 14-770, Lot. No. 2052551) was prepared in 1× kinase buffer at 4-fold of the final concentration (final concentration: 6 nM) in the assay. 2.5 μl of kinase solution was added to each well of the 384-well assay plate, which contains 2.5 μl of compounds with serially diluted concentration. 2× substrate solution was prepared with ULight-4E-BP1 (Thr37/46) Peptide (PE, Cat. No. TRF0128-M, Lot. No. 1695274) and ATP in 1× kinase reaction buffer at 2-fold of the final concentration of each reagent in the assay. 5 μl of substrate solution was added to each well of the assay plate to start reaction. The assay plate was incubated at room temperature for 30 minutes. Detection solution of kinase quench buffer (EDTA) and Eu-anti-phospho-4E-BP1 antibody (Thr37/46) (PE, Cat. No. TRF0216-M, Lot. No. 1571838) were prepared at 2-fold the desired final concentrations of each reagent in Lance detection buffer. 10 μl of detection solution buffer was added to each well of the assay plate. The assay plate was equilibrated for 60 minutes at room temperature before read on a plate reader (Lance signal (665 nm) from Envision program).

The target in a further assay is PI3Kα (p110α/p85a) (Homo sapiens (Human), UniProt P42336). As to the kind of experiment: PI3K biochemical potency assay (PI3Kα). Here is the method:
as §1

Structures are written as SMILES. pIC50: −log10 of the molar value. Bounds are passed on as bounds.

Sequence of ATM (Q13315 whole entry, looked up): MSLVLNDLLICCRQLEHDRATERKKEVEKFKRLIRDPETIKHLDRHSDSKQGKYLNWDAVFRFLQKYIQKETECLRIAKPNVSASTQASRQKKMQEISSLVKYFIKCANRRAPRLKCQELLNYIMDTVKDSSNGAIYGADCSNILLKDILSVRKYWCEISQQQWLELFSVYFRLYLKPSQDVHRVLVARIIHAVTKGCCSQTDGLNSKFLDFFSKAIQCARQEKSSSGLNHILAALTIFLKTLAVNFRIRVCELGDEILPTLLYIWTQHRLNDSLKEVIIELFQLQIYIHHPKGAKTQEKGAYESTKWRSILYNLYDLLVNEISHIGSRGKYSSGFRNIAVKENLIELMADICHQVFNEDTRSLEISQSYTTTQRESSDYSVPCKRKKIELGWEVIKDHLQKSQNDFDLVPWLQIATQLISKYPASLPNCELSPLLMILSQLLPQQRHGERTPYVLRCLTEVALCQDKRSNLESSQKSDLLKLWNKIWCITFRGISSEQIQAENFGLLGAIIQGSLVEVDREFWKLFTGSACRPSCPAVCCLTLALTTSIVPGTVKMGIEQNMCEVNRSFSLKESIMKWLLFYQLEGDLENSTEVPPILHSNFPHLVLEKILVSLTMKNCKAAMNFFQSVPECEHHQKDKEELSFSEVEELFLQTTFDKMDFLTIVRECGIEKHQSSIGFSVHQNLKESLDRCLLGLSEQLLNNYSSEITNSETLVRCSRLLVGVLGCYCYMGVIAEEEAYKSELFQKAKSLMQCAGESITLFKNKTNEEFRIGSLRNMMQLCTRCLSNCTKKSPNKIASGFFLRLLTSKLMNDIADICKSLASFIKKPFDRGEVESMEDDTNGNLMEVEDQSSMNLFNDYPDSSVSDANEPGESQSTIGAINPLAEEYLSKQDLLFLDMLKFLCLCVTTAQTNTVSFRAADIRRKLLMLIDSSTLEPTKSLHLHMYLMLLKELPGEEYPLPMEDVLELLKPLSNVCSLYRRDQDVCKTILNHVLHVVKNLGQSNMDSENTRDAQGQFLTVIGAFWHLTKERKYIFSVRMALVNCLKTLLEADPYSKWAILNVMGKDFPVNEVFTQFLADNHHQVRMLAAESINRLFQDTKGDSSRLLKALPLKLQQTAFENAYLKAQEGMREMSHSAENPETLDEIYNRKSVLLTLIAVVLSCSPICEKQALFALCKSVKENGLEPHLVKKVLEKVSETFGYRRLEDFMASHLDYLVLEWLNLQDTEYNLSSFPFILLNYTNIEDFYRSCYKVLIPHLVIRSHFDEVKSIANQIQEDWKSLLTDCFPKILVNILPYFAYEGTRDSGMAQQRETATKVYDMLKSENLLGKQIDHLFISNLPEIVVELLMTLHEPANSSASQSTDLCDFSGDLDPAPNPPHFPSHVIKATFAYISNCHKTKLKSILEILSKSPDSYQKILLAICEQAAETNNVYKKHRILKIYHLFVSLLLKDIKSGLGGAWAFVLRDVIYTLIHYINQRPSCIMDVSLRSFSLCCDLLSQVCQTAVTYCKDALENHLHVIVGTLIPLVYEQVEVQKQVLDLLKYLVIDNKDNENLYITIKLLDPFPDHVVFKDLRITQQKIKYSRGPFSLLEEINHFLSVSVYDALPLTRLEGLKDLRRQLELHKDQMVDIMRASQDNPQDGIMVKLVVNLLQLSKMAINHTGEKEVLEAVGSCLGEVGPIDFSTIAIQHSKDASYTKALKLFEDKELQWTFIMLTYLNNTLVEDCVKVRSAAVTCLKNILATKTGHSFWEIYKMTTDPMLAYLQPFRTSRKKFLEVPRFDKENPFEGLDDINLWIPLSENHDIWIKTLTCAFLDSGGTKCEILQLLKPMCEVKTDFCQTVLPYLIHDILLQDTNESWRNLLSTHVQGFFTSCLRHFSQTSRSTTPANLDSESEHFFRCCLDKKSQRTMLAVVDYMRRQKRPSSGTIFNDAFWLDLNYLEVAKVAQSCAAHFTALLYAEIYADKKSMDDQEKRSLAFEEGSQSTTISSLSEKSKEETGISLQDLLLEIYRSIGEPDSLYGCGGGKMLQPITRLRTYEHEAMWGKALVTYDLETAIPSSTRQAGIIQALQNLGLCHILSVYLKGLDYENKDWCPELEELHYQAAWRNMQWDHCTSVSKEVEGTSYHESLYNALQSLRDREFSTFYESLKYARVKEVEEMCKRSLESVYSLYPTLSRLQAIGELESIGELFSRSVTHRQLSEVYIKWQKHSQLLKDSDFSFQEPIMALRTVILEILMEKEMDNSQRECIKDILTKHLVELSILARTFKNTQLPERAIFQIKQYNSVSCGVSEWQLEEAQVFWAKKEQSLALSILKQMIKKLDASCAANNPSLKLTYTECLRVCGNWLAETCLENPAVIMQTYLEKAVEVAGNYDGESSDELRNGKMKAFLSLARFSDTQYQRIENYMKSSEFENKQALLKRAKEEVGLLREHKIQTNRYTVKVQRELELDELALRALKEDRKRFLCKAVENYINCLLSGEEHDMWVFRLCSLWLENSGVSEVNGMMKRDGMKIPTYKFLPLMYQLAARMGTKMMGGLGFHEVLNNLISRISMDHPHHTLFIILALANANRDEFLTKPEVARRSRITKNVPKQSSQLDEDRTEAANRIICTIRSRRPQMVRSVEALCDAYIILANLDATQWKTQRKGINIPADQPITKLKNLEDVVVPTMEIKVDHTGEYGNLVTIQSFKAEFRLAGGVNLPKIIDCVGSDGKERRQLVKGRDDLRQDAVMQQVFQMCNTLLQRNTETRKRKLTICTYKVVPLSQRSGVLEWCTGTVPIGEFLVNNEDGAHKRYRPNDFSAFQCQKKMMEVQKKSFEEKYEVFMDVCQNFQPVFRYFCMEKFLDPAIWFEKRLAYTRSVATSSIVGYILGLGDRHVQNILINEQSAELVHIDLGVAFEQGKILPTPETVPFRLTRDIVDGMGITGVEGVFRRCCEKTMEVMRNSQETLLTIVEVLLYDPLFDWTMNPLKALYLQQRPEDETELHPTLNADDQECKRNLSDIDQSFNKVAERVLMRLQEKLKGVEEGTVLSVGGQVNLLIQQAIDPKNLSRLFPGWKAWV
Sequence of ATM in SN38 treated HT-29 cells (Q13315 whole entry, looked up): as above

As a reminder, the pIC50 is −log10 of the IC50, conventionally taken in molar units. A lower pIC50 goes with a large IC50. At ATM, `Cn1c(=O)n(C2CCOCC2)c2c3cc(-c4ccc(OCCCN5CCC(F)CC5)nc4)c(F)cc3nnc21` [Example 24, 7-fluoro-8-(6-(3-(4-fluoropiperidin-1-yl)propoxy)pyridin-3-yl)-3-methyl-1-(tetrahydro-2H-pyran-4-yl)-1H-imidazo[4,5-c]cinnolin-2(3H)-one] had a pIC50 below 6.00.

For `CC(C)n1c(=O)n(C)c2nnc3cc(F)c(-c4ccc(COCCN5CCCCC5)nc4)cc3c21` [Example 7, 7-fluoro-1-isopropyl-3-methyl-8-(6-((2-(piperidin-1-yl)ethoxy)methyl)pyridin-3-yl)-1H-imidazo[4,5-c]cinnolin-2(3H)-one], the negative logarithm of the IC50 (pIC50) against ATR was below 5.00; against PIK3Cβ (p110β), below 5.00; on PIK3Cγ (pp110γ) it was below 5.00; in assay [1], 6.56; on PIK3Cδ it was below 5.00; at mTOR, below 5.00. Moreover, the pIC50 against PI3Kα (p110α/p85a) is below 5.00; on ATM it was 7.59.

Turning to `CN(C)CC1CCN(c2ccc(-c3cc4c(cc3F)nnc3c4n(C4CCOCC4)c(=O)n3C)cn2)C1` (stereo not shown) [Example 21, 8-(6-(3-((dimethylamino)methyl)pyrrolidin-1-yl)pyridin-3-yl)-7-fluoro-3-methyl-1-(tetrahydro-2H-pyran-4-yl)-1H-imidazo[4,5-c]cinnolin-2(3H)-one], at ATM, the pIC50 is 7.01.

As to `CC(C)n1c(=O)n(C)c2nnc3cc(F)c(-c4ccc(COCCN5CCCC5)nc4)cc3c21` [Example 8, 7-fluoro-1-isopropyl-3-methyl-8-(6-((2-(pyrrolidin-1-yl)ethoxy)methyl)pyridin-3-yl)-1H-imidazo[4,5-c]cinnolin-2(3H)-one], the pIC50 against ATR, against PIK3Cβ (p110β), against PIK3Cγ (pp110γ), at PIK3Cδ, against mTOR and against PI3Kα (p110α/p85a) was below 5.00 throughout. The molecule also showed a pIC50 against ATM of 7.29.

Regarding `CC(C)n1c(=O)n(C)c2nnc3cc(F)c(-c4ccc(COCCN5CCC(F)CC5)nc4)cc3c21` [Example 10, 7-fluoro-8-(6-((2-(4-fluoropiperidin-1-yl)ethoxy)methyl)pyridin-3-yl)-1-isopropyl-3-methyl-1H-imidazo[4,5-c]cinnolin-2(3H)-one], the pIC50 at ATR, at PIK3Cβ (p110β), against PIK3Cγ (pp110γ), on PIK3Cδ, against mTOR and against PI3Kα (p110α/p85a) was below 5.00 in each case.

On to `CC(C)n1c(=O)n(C)c2nnc3cc(F)c(-c4ccc(COCCN(C)C)nc4)cc3c21` [Example 6, 8-(6-((2-(dimethylamino)ethoxy)methyl)pyridin-3-yl)-7-fluoro-1-isopropyl-3-methyl-1H-imidazo[4,5-c]cinnolin-2(3H)-one], for which the pIC50 was below 5.00 against ATR; below 5.00 at PIK3Cβ (p110β); below 5.00 against PIK3Cγ (pp110γ); 7.15 in assay [1]; below 5.00 on PIK3Cδ; below 5.00 against mTOR. Besides, the pIC50 against PI3Kα (p110α/p85a) is below 5.00; against ATM, 7.00.

For the molecule `CC(C)n1c(=O)n(C)c2nnc3cc(F)c(-c4ccc(N5CCC(CN(C)C)C5)nc4)cc3c21` (stereo not shown) [Example 5, 8-(6-(3-((dimethylamino)methyl)pyrrolidin-1-yl)pyridin-3-yl)-7-fluoro-1-isopropyl-3-methyl-1H-imidazo[4,5-c]cinnolin-2(3H)-one], the pIC50 on ATR, against PIK3Cβ (p110β), against PIK3Cγ (pp110γ), at PIK3Cδ, on mTOR and on PI3Kα (p110α/p85a) was below 5.00 in each case. The same molecule showed a negative-log IC50 (pIC50) at ATM of 7.19.

As for `Cn1c(=O)n(C2CCOCC2)c2c3cc(-c4ccc(OCCCN5CC[C@@H](F)C5)nc4)c(F)cc3nnc21` [Example 25, (R)-7-fluoro-8-(6-(3-(3-fluoropyrrolidin-1-yl)propoxy)pyridin-3-yl)-3-methyl-1-(tetrahydro-2H-pyran-4-yl)-1H-imidazo[4,5-c]cinnolin-2(3H)-one], at ATM, the pIC50 was below 6.00.

`CC(C)n1c(=O)n(C)c2nnc3cc(F)c(-c4ccc(OCCCN(C)C)nc4F)cc3c21` [Example 17, 8-(6-(3-(dimethylamino)propoxy)-2-fluoropyridin-3-yl)-7-fluoro-1-isopropyl-3-methyl-1,3-dihydro-2H-imidazo[4,5-c]cinnolin-2-one] gave a pIC50 on ATM of 8.15.

Consider `CC(C)n1c(=O)n(C)c2nnc3cc(F)c(-c4ccc(COCCN5CC[C@@H](F)C5)nc4)cc3c21` [Example 9, (R)-7-fluoro-8-(6-((2-(3-fluoropyrrolidin-1-yl)ethoxy)methyl)pyridin-3-yl)-1-isopropyl-3-methyl-1H-imidazo[4,5-c]cinnolin-2(3H)-one], for which the pIC50 against ATR, on PIK3Cβ (p110β), at PIK3Cγ (pp110γ), against PIK3Cδ, against mTOR and on PI3Kα (p110α/p85a) was below 5.00 in each case. The same molecule gave a pIC50 at ATM of 7.46.

`CC(C)n1c(=O)n(C)c2nnc3cc(F)c(-c4ccc(C(=O)NCCN(C)C)nc4)cc3c21` [Example 12, N-(2-(dimethylamino)ethyl)-5-(7-fluoro-1-isopropyl-3-methyl-2-oxo-2,3-dihydro-1H-imidazo[4,5-c]cinnolin-8-yl)picolinamide]: the negative logarithm of the IC50 (pIC50) against ATR, against PIK3Cβ (p110β), at PIK3Cγ (pp110γ), against PIK3Cδ, against mTOR and on PI3Kα (p110α/p85a) was below 5.00 each time. For the same molecule, the pIC50 on ATM is 6.44.

Turning to `CC(C)n1c(=O)n(C)c2nnc3cc(F)c(-c4ccc(N5CCC(N(C)C)CC5)nc4)cc3c21` [Example 4, 8-(6-(4-(dimethylamino)piperidin-1-yl)pyridin-3-yl)-7-fluoro-1-isopropyl-3-methyl-1H-imidazo[4,5-c]cinnolin-2(3H)-one], the pIC50 at ATR, on PIK3Cβ (p110β), on PIK3Cγ (pp110γ), at PIK3Cδ, against mTOR and against PI3Kα (p110α/p85a) was below 5.00 in each case. This molecule also gave a pIC50 against ATM of 8.00.

The molecule `CN(C)CCCOc1ccc(-c2cc3c(cc2F)nnc2c3n(C3CCOCC3)c(=O)n2C)cn1` [Example 19, 8-(6-(3-(dimethylamino)propoxy)pyridin-3-yl)-7-fluoro-3-methyl-1-(tetrahydro-2H-pyran-4-yl)-1H-imidazo[4,5-c]cinnolin-2(3H)-one] gave a pIC50 on ATM of 7.89.

Molecule `Cn1c(=O)n(C2CCOCC2)c2c3cc(-c4ccc(OCCCN5CCCCC5)nc4)c(F)cc3nnc21` [Example 18, 7-fluoro-3-methyl-8-(6-(3-(piperidin-1-yl)propoxy)pyridin-3-yl)-1-(tetrahydro-2H-pyran-4-yl)-1H-imidazo[4,5-c]cinnolin-2(3H)-one] showed a pIC50 against ATM of 8.32.

`Cn1c(=O)n(C2CCOCC2)c2c3cc(-c4ccc(OCCCN5CCCC5)nc4)c(F)cc3nnc21` [Example 20, 7-fluoro-3-methyl-8-(6-(3-(pyrrolidin-1-yl)propoxy)pyridin-3-yl)-1-(tetrahydro-2H-pyran-4-yl)-1H-imidazo[4,5-c]cinnolin-2(3H)-one]: on ATM, the negative logarithm of the IC50 (pIC50) was 8.22.

(Values after patent US12226414B2, “1-isopropyl-3-methyl-8-(pyridin-3-yl)-1,3-dihydro-2H-imidazo[4,5-c] cinnolin-2-one as selective modulators of ataxia telangiectasia mutated (ATM) kinase and uses thereof” (SUZHOU ZANRONG PHARMA LIMITED, priority 2018, dated 2025).)
